Usually EC50 stands for the midpoint of the concentration-response curve. High values mean a need for much substance, low ones an effect from little substance.

What all share (format): cell-based
The target of experiment [1] is T1, GLP-1 receptor (Homo sapiens, UniProt P43220).
T1 construct: expressed in transfected cells; host or cells: HEK293
The experiment is described as follows: cAMP synthesis functional assay (firefly luciferase reporter in HEK293 cells), GLP-1 receptor. Conditions: for GLP-1 Receptor relative activity: Table 1, relative to the native hormone of the indicated receptor. A general note: A reporter such as luciferase makes a cellular process visible.

Experiment [2] addresses T2, GIP receptor (Homo sapiens, UniProt P48546).
T2 construct: expressed in transfected cells; host or cells: HEK293
T2 sequence (P48546 22-466): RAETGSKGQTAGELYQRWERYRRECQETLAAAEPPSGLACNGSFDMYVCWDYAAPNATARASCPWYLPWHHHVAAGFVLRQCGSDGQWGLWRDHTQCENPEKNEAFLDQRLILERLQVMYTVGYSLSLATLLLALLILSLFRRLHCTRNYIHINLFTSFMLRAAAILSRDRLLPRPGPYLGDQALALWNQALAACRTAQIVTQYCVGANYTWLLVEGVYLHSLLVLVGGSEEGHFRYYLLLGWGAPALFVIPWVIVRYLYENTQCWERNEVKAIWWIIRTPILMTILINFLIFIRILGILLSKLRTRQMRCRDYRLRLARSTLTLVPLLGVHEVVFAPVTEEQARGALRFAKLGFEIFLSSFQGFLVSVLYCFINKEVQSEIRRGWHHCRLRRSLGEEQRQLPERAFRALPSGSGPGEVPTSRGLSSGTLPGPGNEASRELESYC
The experiment is described as follows: cAMP synthesis functional assay (firefly luciferase reporter in HEK293 cells), GIP receptor. To be noted: Table 1; relative to the native hormone of the indicated receptor.

The target of experiment [3] is T3, glucagon receptor (Homo sapiens, UniProt P47871).
T3 construct: expressed in transfected cells; host or cells: HEK293
The experiment is described as follows: cAMP synthesis functional assay (firefly luciferase reporter in HEK293 cells), glucagon receptor. To be noted: for Glucagon Receptor relative activity: relative to the native hormone of the indicated receptor.

Where [4] appears, read: Glucagon Receptor EC50, nM, Table 1.

Where a SMILES comes first, the peptide text is derived from it. Bridges are numbered along the chain shown (N, C = ends). Where no end group is shown, it is not given here. [ ]: non-standard residue; d: D form. PEG 40 kDa = PEG (40 kDa) covalently attached to Cys; Aib = CC(C)(N)C(=O)O

T1 sequence (P43220 24-463, species assumed): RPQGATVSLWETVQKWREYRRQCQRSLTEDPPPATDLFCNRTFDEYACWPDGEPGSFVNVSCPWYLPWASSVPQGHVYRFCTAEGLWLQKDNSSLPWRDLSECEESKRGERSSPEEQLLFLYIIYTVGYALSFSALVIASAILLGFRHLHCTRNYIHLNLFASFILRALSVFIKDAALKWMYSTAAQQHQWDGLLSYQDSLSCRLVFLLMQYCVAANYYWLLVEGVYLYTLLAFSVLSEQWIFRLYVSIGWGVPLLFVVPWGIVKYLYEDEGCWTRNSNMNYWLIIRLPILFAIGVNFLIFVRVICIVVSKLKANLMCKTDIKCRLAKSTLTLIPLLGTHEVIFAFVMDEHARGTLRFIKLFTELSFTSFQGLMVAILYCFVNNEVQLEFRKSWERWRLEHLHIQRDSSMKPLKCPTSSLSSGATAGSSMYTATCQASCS
T3 sequence (P47871 26-477): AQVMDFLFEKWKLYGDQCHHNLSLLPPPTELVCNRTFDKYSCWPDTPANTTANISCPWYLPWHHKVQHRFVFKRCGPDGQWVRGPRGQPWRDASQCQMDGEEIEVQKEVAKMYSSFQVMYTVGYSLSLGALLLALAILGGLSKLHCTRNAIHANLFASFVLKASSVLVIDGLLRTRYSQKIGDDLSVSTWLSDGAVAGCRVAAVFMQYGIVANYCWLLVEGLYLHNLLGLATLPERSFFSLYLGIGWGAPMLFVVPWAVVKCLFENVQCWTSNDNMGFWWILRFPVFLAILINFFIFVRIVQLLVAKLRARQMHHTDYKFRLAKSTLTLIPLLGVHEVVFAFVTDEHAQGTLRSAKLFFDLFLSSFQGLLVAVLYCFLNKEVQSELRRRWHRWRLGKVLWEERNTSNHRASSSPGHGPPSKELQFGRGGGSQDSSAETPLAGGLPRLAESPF

Turning to `CC[C@H](C)[C@H](NC(=O)[C@H](Cc1ccccc1)NC(=O)[C@H](CCC(=O)O)NC(=O)[C@@H]1CCCCNC(=O)CC[C@H](NC(=O)[C@H](CC(=O)O)NC(=O)[C@H](CC(C)C)NC(=O)[C@H](Cc2ccc(O)cc2)NC(=O)[C@H](CCCCN)NC(=O)[C@H](CO)NC(=O)[C@H](Cc2ccc(O)cc2)NC(=O)[C@H](CC(=O)O)NC(=O)[C@H](CO)NC(=O)[C@@H](NC(=O)[C@H](Cc2ccccc2)NC(=O)[C@@H](NC(=O)CNC(=O)[C@H](CCC(N)=O)NC(=O)[C@H](CO)NC(=O)[C@@H](N)Cc2c[nH]cn2)[C@@H](C)O)[C@@H](C)O)C(=O)N[C@@H]([C@@H](C)CC)C(=O)N[C@@H](Cc2c[nH]cn2)C(=O)N[C@@H](CCC(N)=O)C(=O)N1)C(=O)N[C@@H](C)C(=O)N[C@@H](Cc1c[nH]c2ccccc12)C(=O)N[C@@H](CC(C)C)C(=O)N[C@@H](CCSC)C(=O)N[C@@H](CC(N)=O)C(=O)N[C@H](C(N)=O)[C@@H](C)O` [mt-61], in experiment [1], the “GLP-1 Receptor relative activity” value was 22.22%. For the same compound, in experiment [2], the “GIP Receptor relative activity” value was found to be 0.83%. Also, the EC50 in experiment [3] (setting [4]) was found to be 0.11 nM. For the same compound, the “Glucagon Receptor relative activity” value in experiment [3] (Table 1) turned out to be 172.73%.

Regarding `CC[C@H](C)[C@H](NC(=O)[C@H](Cc1ccccc1)NC(=O)[C@H](CCC(=O)O)NC(=O)[C@@H]1CCCCNC(=O)CC[C@H](NC(=O)[C@H](CC(=O)O)NC(=O)[C@H](CC(C)C)NC(=O)[C@H](Cc2ccc(O)cc2)NC(=O)[C@@H](NC(=O)[C@H](CO)NC(=O)[C@H](Cc2ccc(O)cc2)NC(=O)[C@H](CC(=O)O)NC(=O)[C@H](CO)NC(=O)[C@@H](NC(=O)[C@H](Cc2ccccc2)NC(=O)[C@@H](NC(=O)CNC(=O)[C@H](CCC(N)=O)NC(=O)[C@H](CO)NC(=O)[C@@H](N)Cc2c[nH]cn2)[C@@H](C)O)[C@@H](C)O)[C@@H](C)CC)C(=O)N[C@@H]([C@@H](C)CC)C(=O)N[C@@H](Cc2c[nH]cn2)C(=O)N[C@@H](CCC(N)=O)C(=O)N1)C(=O)N[C@@H](C)C(=O)N[C@@H](Cc1c[nH]c2ccccc12)C(=O)N[C@@H](CC(C)C)C(=O)N[C@@H](CCSC)C(=O)N[C@@H](CC(N)=O)C(=O)N[C@H](C(N)=O)[C@@H](C)O` [mt-62] (H-HSQGTFTSDYSIYLDEIHQKEFIAWLMNT-NH2; lactam 16-20; N-terminus assumed), the “GLP-1 Receptor relative activity” value in experiment [1] worked out at 40.00%. Also, the “GIP Receptor relative activity” value in experiment [2] is listed as 1.60%. In experiment [3] (setting [4]), this compound gave an EC50 of 0.45 nM. Also, the “Glucagon Receptor relative activity” value in experiment [3] (Table 1) is listed as 42.22%.

On to `CC[C@H](C)[C@H](NC(=O)[C@H](CO)NC(=O)[C@H](Cc1ccc(O)cc1)NC(=O)[C@H](CC(=O)O)NC(=O)[C@H](CO)NC(=O)[C@@H](NC(=O)[C@H](Cc1ccccc1)NC(=O)[C@@H](NC(=O)CNC(=O)[C@H](CCC(=O)O)NC(=O)[C@H](C)NC(=O)[C@@H](N)Cc1ccc(O)cc1)[C@@H](C)O)[C@@H](C)O)C(=O)N[C@@H](Cc1ccc(O)cc1)C(=O)N[C@@H](CCSC)C(=O)N[C@@H](CC(=O)O)C(=O)N[C@H]1CCC(=O)NCCCC[C@@H](C(=O)N[C@@H](CCC(=O)O)C(=O)N[C@@H](Cc2ccccc2)C(=O)N[C@H](C(=O)N[C@@H](CC(N)=O)C(=O)N[C@@H](Cc2c[nH]c3ccccc23)C(=O)N[C@@H](CC(C)C)C(=O)N[C@@H](CC(C)C)C(=O)N[C@@H](C)C(=O)NCC(=O)NCC(=O)N2CCC[C@H]2C(=O)N[C@@H](CO)C(=O)N[C@@H](CO)C(=O)NCC(=O)N[C@@H](C)C(=O)N2CCC[C@H]2C(=O)N2CCC[C@H]2C(=O)N2CCC[C@H]2C(=O)N[C@@H](CO)C(N)=O)C(C)C)NC(=O)[C@H](C)NC(=O)[C@H](C)NC(=O)[C@H](CCC(N)=O)NC1=O` [mt-142] (H-YAEGTFTSDYSIYMDEQAAKEFVNWLLAGGPSSGAPPPS-NH2; lactam 16-20; N-terminus assumed), for which, in experiment [1], the “GLP-1 Receptor relative activity” value came out at 163.41%. Besides, the “GIP Receptor relative activity” value in experiment [2] came to 36.36%.

As for `CC[C@H](C)[C@H](NC(=O)[C@H](CO)NC(=O)[C@H](Cc1ccc(O)cc1)NC(=O)[C@H](CC(=O)O)NC(=O)[C@H](CO)NC(=O)[C@@H](NC(=O)[C@H](Cc1ccccc1)NC(=O)[C@@H](NC(=O)CN)[C@@H](C)O)[C@@H](C)O)C(=O)N[C@@H](Cc1ccc(O)cc1)C(=O)N[C@@H](CC(C)C)C(=O)N[C@@H](CC(=O)O)C(=O)N[C@H]1CCC(=O)NCCCC[C@@H](C(=O)N[C@@H](CCC(=O)O)C(=O)N[C@@H](Cc2ccccc2)C(=O)N[C@H](C(=O)N[C@@H](CC(N)=O)C(=O)N[C@@H](Cc2c[nH]c3ccccc23)C(=O)N[C@@H](CC(C)C)C(=O)N[C@@H](CC(C)C)C(=O)N[C@@H](C)C(=O)NCC(N)=O)C(C)C)NC(=O)[C@H](C)NC(=O)[C@H](C)NC(=O)[C@H](CCC(N)=O)NC1=O` [mt-197] (H-GTFTSDYSIYLDEQAAKEFVNWLLAG-NH2; lactam 13-17; N-terminus assumed), the “GLP-1 Receptor relative activity” value in experiment [1] was 0.07%. Further, the “Glucagon Receptor relative activity” value in experiment [3] (Table 1) was found to be 0.13%.

Turning to `CC[C@H](C)[C@H](NC(=O)[C@H](CO)NC(=O)[C@H](Cc1ccc(O)cc1)NC(=O)[C@H](CC(=O)O)NC(=O)[C@H](CO)NC(=O)[C@@H](NC(=O)[C@H](Cc1ccccc1)NC(=O)[C@@H](NC(=O)CNC(=O)[C@H](CCC(=O)O)NC(=O)C(C)(C)NC(=O)[C@@H](N)Cc1ccc(O)cc1)[C@@H](C)O)[C@@H](C)O)C(=O)N[C@@H](Cc1ccc(O)cc1)C(=O)N[C@@H](CC(C)C)C(=O)N[C@@H](CC(=O)O)C(=O)N[C@@H](CCCCN)C(=O)N[C@@H](CCC(N)=O)C(=O)N[C@@H](C)C(=O)N[C@@H](C)C(=O)NC(C)(C)C(=O)N[C@@H](CCC(=O)O)C(=O)N[C@@H](Cc1ccccc1)C(=O)N[C@H](C(=O)N[C@@H](CCCCN)C(=O)N[C@@H](Cc1c[nH]c2ccccc12)C(=O)N[C@@H](CC(C)C)C(=O)N[C@@H](CC(C)C)C(=O)N[C@@H](C)C(=O)NCC(=O)NCC(=O)N1CCC[C@H]1C(=O)N[C@@H](CO)C(=O)N[C@@H](CO)C(=O)NCC(=O)N[C@@H](C)C(=O)N1CCC[C@H]1C(=O)N1CCC[C@H]1C(=O)N1CCC[C@H]1C(=O)N[C@@H](CO)C(N)=O)C(C)C` [mt-268], the EC50 was 0.0155 nM in experiment [1] (GLP-1 Receptor EC50, cAMP luciferase reporter assay as in Example 16) and 6.5 nM in experiment [3] (Glucagon Receptor EC50, cAMP luciferase reporter assay as in Example 16).

As for “HSQGTFTSDYSKYLDEIHQKEFIAWLLAQ-NH2 [mt-66]”, the “GLP-1 Receptor relative activity” value in experiment [1] is recorded as 38.46%. Further, in experiment [3] (Table 1), the “Glucagon Receptor relative activity” value is listed as 13.00%.

Take “HSQGTFTSDYSKYLDKIHQEEFIAWLMNT-NH2 [mt-68]”: the “GLP-1 Receptor relative activity” value in experiment [1] is given as 6.10%. Moreover, a half-maximal effect in experiment [3] (setting [4]) (EC50) was put at 1.97 nM. Besides, in experiment [3] (Table 1), the “Glucagon Receptor relative activity” value is 13.20%.

Consider “YAEGTFISDYSIAMDKIHQQDFVNWLLAQ-NH2 [mt-106]”, for which, in experiment [1], the “GLP-1 Receptor relative activity” value was 0.02%. Further, the “Glucagon Receptor relative activity” value in experiment [3] (Table 1) is 0.11%.

As for “YAPGTFISDYSIAMDKIHQQDFVCWLLAQKGKKNWLKHNITQ-NH2 [mt-104]”, the “GIP Receptor relative activity” value in experiment [2] was found to be 0.22%.

“YAPGTFISDYSIAMDKIHQQDFVNWLLAQKGKKNWLKHNITQ-NH2 [mt-101]”: the “GIP Receptor relative activity” value in experiment [2] was 0.06%.

“mt-208: glucagon analog peptide, C-terminal amide (Y[Aib]EGTFTSDYSIYLDEQAAKEFVNWLLAGKGKKNWLKHNITQC(PEG 40 kDa)-NH2; lactam 16-20)”: the “GLP-1 Receptor relative activity” value in experiment [1] was determined as 11.83%. Also, the “GIP Receptor relative activity” value in experiment [2] is listed as 4.79%.

The values above are taken from patent US9062124B2, “GIP-based mixed agonists for treatment of metabolic disorders and obesity” (priority 2008, dated 2015).
